Laboratory results published in PMC11003488 (Journal of Enzyme Inhibition and Medicinal Chemistry, 2023).
Where two headings read alike, the source gives them in different places.

What was measured:
NCI-H322M = assay: NCI-60 SRB growth inhibition, one-dose and five-dose; format: cell-based; conditions: Homo sapiens
HCC-2998 = assay: as above; format: cell-based; conditions: Homo sapiens
786-0 = assay: as above; format: cell-based; conditions: Homo sapiens
RXF 393 = assay: as above; format: cell-based; conditions: Homo sapiens
NCI-H522 = assay: as above; format: cell-based; conditions: Homo sapiens
NCI/ADR-RES = assay: as above; format: cell-based; conditions: Homo sapiens
IGROV1 = assay: as above; format: cell-based; conditions: Homo sapiens
HS 578 T = assay: as above; format: cell-based; conditions: Homo sapiens
SR = assay: as above; format: cell-based; conditions: Homo sapiens
EKVX = assay: as above; format: cell-based; conditions: Homo sapiens
SNB-75 = assay: as above; format: cell-based; conditions: Homo sapiens
NCI-H460 = assay: as above; format: cell-based; conditions: Homo sapiens
UACC-62 = assay: as above; format: cell-based; conditions: Homo sapiens
MCF7 = assay: as above; format: cell-based; conditions: Homo sapiens
HCT-15 = assay: as above; format: cell-based; conditions: Homo sapiens
M14 = assay: as above; format: cell-based; conditions: Homo sapiens
OVCAR-3 = assay: as above; format: cell-based; conditions: Homo sapiens
HCT-116 = assay: as above; format: cell-based; conditions: Homo sapiens
SK-MEL-28 = assay: as above; format: cell-based; conditions: Homo sapiens
SF-539 = assay: as above; format: cell-based; conditions: Homo sapiens
A549/ATCC = assay: as above; format: cell-based; conditions: Homo sapiens
HL-60(TB) = assay: cells; format: cell-based; conditions: Homo sapiens
PC-3 = assay: NCI-60 SRB growth inhibition, one-dose and five-dose; format: cell-based; conditions: Homo sapiens
T-47D = assay: as above; format: cell-based; conditions: Homo sapiens, T47D
K-562 = assay: as above; format: cell-based; conditions: Homo sapiens
MOLT-4 = assay: as above; format: cell-based; conditions: Homo sapiens
SF-268 = assay: as above; format: cell-based; conditions: Homo sapiens
[1] = test system: NCI 60-cell line panel (full panel); assay: NCI-60 SRB growth inhibition, full panel mean / MG-MID; format: cell-based, human; conditions: for GI50: Homo sapiens, 60 cell
BT-549 = assay: NCI-60 SRB growth inhibition, one-dose and five-dose; format: cell-based; conditions: Homo sapiens
CAKI-1 = assay: as above; format: cell-based; conditions: Homo sapiens
NCI-H23 = assay: as above; format: cell-based; conditions: Homo sapiens
U251 = assay: as above; format: cell-based; conditions: Homo sapiens
OVCAR-5 = assay: as above; format: cell-based; conditions: Homo sapiens
OVCAR-8 = assay: as above; format: cell-based; conditions: Homo sapiens
SNB-19 = assay: as above; format: cell-based; conditions: Homo sapiens
HOP-92 = assay: as above; format: cell-based; conditions: Homo sapiens
SN12C = assay: as above; format: cell-based; conditions: Homo sapiens
SK-MEL-2 = assay: as above; format: cell-based; conditions: Homo sapiens
RPMI-8226 = assay: as above; format: cell-based; conditions: Homo sapiens
TK-10 = assay: as above; format: cell-based; conditions: Homo sapiens
A498 = assay: as above; format: cell-based; conditions: Homo sapiens
SW-620 = assay: as above; format: cell-based; conditions: Homo sapiens
[2] = read-out: percent growth inhibition

## COc1ccc(CNc2cccc(C(=O)/C=C/c3ccc(NC(C)=O)cc3)c2)cc1OC [Compound 5h, (E)-N-(4–(3-(3-((3,4-dimethoxybenzyl)amino)phenyl)-3-oxoprop-1-en-1-yl)phenyl) acetamide]
NCI-H322M
  GI50: 13.6 µM
NCI-H322M; [2]
  inhibition at 10 µM: 32%
HCC-2998; HCC 2998
  GI50: 3.3 µM
HCC-2998; HCC 2998, read-out: percent growth inhibition
  inhibition at 10 µM: 176%
786-0; 786-0
  GI50: 1.57 µM
786-0; 786-0, read-out: percent growth inhibition
  inhibition at 10 µM: 155%
RXF 393; RXF 393
  GI50: 1.87 µM
RXF 393; RXF 393, read-out: percent growth inhibition
  inhibition at 10 µM: 132%
NCI-H522; NCI-H522
  GI50: 8.85 µM
NCI-H522; NCI-H522, read-out: percent growth inhibition
  inhibition at 10 µM: 150%
NCI/ADR-RES
  GI50: 2.86 µM
IGROV1; IGROV-1
  GI50: 4.54 µM
IGROV1; IGROV-1, read-out: percent growth inhibition
  inhibition at 10 µM: 96.8%
HS 578 T
  GI50: 3.07 µM
HS 578 T; [2]
  inhibition at 10 µM: 99.1%
SR
  GI50: 1.93 µM
SR; [2]
  inhibition at 10 µM: 98.3%
EKVX
  GI50: 4.09 µM
EKVX; [2]
  inhibition at 10 µM: 94.9%
SNB-75; SNB-75
  GI50: 10.1 µM
SNB-75; SNB-75, read-out: percent growth inhibition
  inhibition at 10 µM: 62.8%
NCI-H460; NCI-H460
  GI50: 2.1 µM
NCI-H460; NCI-H460, read-out: percent growth inhibition
  inhibition at 10 µM: 143%
UACC-62; UACC-62
  GI50: 3.9 µM
UACC-62; UACC-62, read-out: percent growth inhibition
  inhibition at 10 µM: 130%
MCF7; MCF7
  GI50: 2.54 µM
MCF7; MCF7, read-out: percent growth inhibition
  inhibition at 10 µM: 119%
HCT-15; HCT-15
  GI50: 1.8 µM
HCT-15; HCT-15, read-out: percent growth inhibition
  inhibition at 10 µM: 125%
M14; M14
  GI50: 1.72 µM
M14; M14, read-out: percent growth inhibition
  inhibition at 10 µM: 142%
OVCAR-3; OVCAR-3
  GI50: 2.28 µM
OVCAR-3; OVCAR-3, read-out: percent growth inhibition
  inhibition at 10 µM: 114%
HCT-116; HCT-116, HCT-116 (colon cancer), five-dose assay
  GI50: 1.95 µM
HCT-116; HCT-116, HCT-116, five-dose screening
  GI50: 0.78 µM
HCT-116; HCT-116, read-out: percent growth inhibition
  inhibition at 10 µM: 174%
SK-MEL-28; SK-MEL-28
  GI50: 2.82 µM
SK-MEL-28; SK-MEL-28, read-out: percent growth inhibition
  inhibition at 10 µM: 108%
SF-539; SF-539
  GI50: 2.31 µM
SF-539; SF-539, read-out: percent growth inhibition
  inhibition at 10 µM: 174%
A549/ATCC; A549
  GI50: 23.6 µM
A549/ATCC; A549, read-out: percent growth inhibition
  inhibition at 10 µM: 77.3%
HL-60(TB); HL-60
  GI50: 2.54 µM
HL-60(TB); HL-60, read-out: percent growth inhibition
  inhibition at 10 µM: 78.8%
PC-3; PC-3
  GI50: 2.81 µM
PC-3; PC-3, read-out: percent growth inhibition
  inhibition at 10 µM: 85%
T-47D
  GI50: 5.04 µM
T-47D; [2]
  inhibition at 10 µM: 104%
K-562; K562
  GI50: 2.5 µM
K-562; K562, read-out: percent growth inhibition
  inhibition at 10 µM: 92.2%
MOLT-4; MOLT-4
  GI50: 2.68 µM
MOLT-4; MOLT-4, read-out: percent growth inhibition
  inhibition at 10 µM: 78.3%
SF-268; SF-268
  GI50: 3.01 µM
SF-268; SF-268, read-out: percent growth inhibition
  inhibition at 10 µM: 64%
[1]; read-out: Full panel GI50 mean
  GI50: 4.48 µM
[1]; read-out: Full panel MG-MID GI50
  GI50: 4.48 µM
[1]; mean over NCI-60 panel, single dose 10 µM
  Full panel Mean GI %: 108.5%
BT-549; BT-549
  GI50: 1.54 µM
BT-549; BT-549, read-out: percent growth inhibition
  inhibition at 10 µM: 126%
CAKI-1; CAKI-1
  GI50: 3.15 µM
CAKI-1; CAKI-1, read-out: percent growth inhibition
  inhibition at 10 µM: 56.4%
NCI-H23; NCI-H23
  GI50: 4.26 µM
NCI-H23; NCI-H23, read-out: percent growth inhibition
  inhibition at 10 µM: 105%
U251; U-251
  GI50: 2.88 µM
U251; U-251, read-out: percent growth inhibition
  inhibition at 10 µM: 150%
OVCAR-5; OVCAR-5
  GI50: 4.53 µM
OVCAR-5; OVCAR-5, read-out: percent growth inhibition
  inhibition at 10 µM: 84.1%
OVCAR-8; OVCAR-8
  GI50: 2.97 µM
OVCAR-8; OVCAR-8, read-out: percent growth inhibition
  inhibition at 10 µM: 95.7%
SNB-19; SNB-19
  GI50: 5.19 µM
SNB-19; SNB-19, read-out: percent growth inhibition
  inhibition at 10 µM: 56.9%
HOP-92; HOP-92
  GI50: 4.02 µM
HOP-92; HOP-92, read-out: percent growth inhibition
  inhibition at 10 µM: 65.8%
SN12C
  GI50: 2.48 µM
SN12C; [2]
  inhibition at 10 µM: 135%
SK-MEL-2; SK-MEL-2
  GI50: 10.6 µM
SK-MEL-2; SK-MEL-2, read-out: percent growth inhibition
  inhibition at 10 µM: 53.7%
RPMI-8226; RPMI-8226
  GI50: 1.79 µM
RPMI-8226; RPMI-8226, read-out: percent growth inhibition
  inhibition at 10 µM: 112%
TK-10; TK-10
  GI50: 4.09 µM
TK-10; TK-10, read-out: percent growth inhibition
  inhibition at 10 µM: 60.7%
A498; A498
  GI50: 13.7 µM
A498; A498, read-out: percent growth inhibition
  inhibition at 10 µM: 11.5%
SW-620; SW-620
  GI50: 2 µM
SW-620; SW-620, read-out: percent growth inhibition
  inhibition at 10 µM: 157%
